{"source": "patent US6921840B1", "about": "(The Trustees of the University of Pennsylvania, priority 1999, dated 2005)", "experiment": "Biodistribution in rats after i.v. injection of radioactive tracer", "format": "in vivo, rat", "experimental": "Three or four rats per group were used for each biodistribution study. While under ether anesthesia, 0.2 ml of a saline solution containing 10 μCi of radioactive tracer was injected into the femoral vein. The rats were sacrificed at the time indicated by cardiac excision while under ether anesthesia. Organs of interest were removed and weighed, and the radioactivity was counted using a Packard automatic gamma counter (Model 5000). The percent dose per organ was calculated by a comparison of the tissue counts to counts of 1% of the initial dose (100 times diluted aliquots of the injected material) measured at the same time.\nRegional brain distribution in rats was measured after an i.v. injection of the radioactive tracer. Samples from different brain regions [cortex (CX), striatum (ST), hippocampus (HP), cerebellum (CB) and hypothalamus (HY)] were dissected, weighed and counted. The percentage dose/g of each sample was calculated by comparing sample counts with the counts of the diluted initial dose described above. The ratio of specific binding (SB) in each region was obtained by dividing the difference of each region from the cerebellum (percentage dose/g) with that of the cerebellum [(region-CB)/CB].", "note": "Where “and” joins values, the source holds several entries; their conditions need not be identical. Identical values can stand only once.", "data": [{"smiles": "CN(C)Cc1ccccc1Sc1ccc([125I])cc1CO", "note": "[[^125I]IDAM]", "values": [{"measurement": "half-time of clearance from the brain regions", "value": "less than 60 min"}, {"measurement": "% dose/g CEREBELLUM", "setting": "2 min", "value": "1.377 ± 0.479", "unit": "% dose/g"}, {"measurement": "% dose/g CORTEX", "setting": "2 min", "value": "2.353 ± 0.444", "unit": "% dose/g"}, {"measurement": "% dose/g HIPPOCAMPUS", "setting": "2 min", "value": "1.485 ± 0.263", "unit": "% dose/g"}, {"measurement": "% dose/g HYPOTHALAMUS", "setting": "2 min", "value": "1.782 ± 0.412", "unit": "% dose/g"}, {"measurement": "% dose/g STRIATUM", "setting": "2 min", "value": "1.377 ± 0.344", "unit": "% dose/g"}, {"measurement": "% dose/organ BLOOD", "setting": "2 min", "value": "7.619 ± 0.41", "unit": "% dose/organ"}, {"measurement": "% dose/organ BRAIN", "setting": "2 min", "value": "2.44 % dose/organ and 2.44 ± 0.34 % dose/organ"}, {"measurement": "% dose/organ HEART", "setting": "2 min", "value": "1.303 ± 0.10", "unit": "% dose/organ"}, {"measurement": "% dose/organ KIDNEY", "setting": "2 min", "value": "6.54 ± 0.26", "unit": "% dose/organ"}, {"measurement": "% dose/organ LIVER", "setting": "2 min", "value": "6.46 ± 1.18", "unit": "% dose/organ"}, {"measurement": "% dose/organ LUNG", "setting": "2 min", "value": "10.42 ± 1.36", "unit": "% dose/organ"}, {"measurement": "% dose/organ MUSCLE", "setting": "2 min", "value": "19.06 ± 8.51", "unit": "% dose/organ"}, {"measurement": "% dose/organ SKIN", "setting": "2 min", "value": "3.27 ± 0.48", "unit": "% dose/organ"}, {"measurement": "% dose/organ SPLEEN", "setting": "2 min", "value": "0.31 ± 0.08", "unit": "% dose/organ"}, {"measurement": "SB: specific binding = (region-CB)/CB, CORTEX", "setting": "2 min", "value": 0.709}, {"measurement": "SB: specific binding = (region-CB)/CB, HIPPOCAMPUS", "setting": "2 min", "value": 0.079}, {"measurement": "SB: specific binding = (region-CB)/CB, HYPOTHALAMUS", "setting": "2 min", "value": 0.294}, {"measurement": "SB: specific binding = (region-CB)/CB, STRIATUM", "setting": "2 min", "value": 0.000}, {"measurement": "total radioactivity recovered from the major organs", "setting": "2 min post-injection", "value": "less than 60 % of total injected dose"}, {"measurement": "% dose/g CEREBELLUM", "setting": "30 min", "value": "0.416 ± 0.045", "unit": "% dose/g"}, {"measurement": "% dose/g CORTEX", "setting": "30 min", "value": "0.820 ± .0108 % dose/g"}, {"measurement": "% dose/g HIPPOCAMPUS", "setting": "30 min", "value": "0.832 ± 0.048", "unit": "% dose/g"}, {"measurement": "% dose/g HYPOTHALAMUS", "setting": "30 min", "value": "0.918 ± 0.113", "unit": "% dose/g"}, {"measurement": "% dose/g STRIATUM", "setting": "30 min", "value": "0.875 ± 0.086", "unit": "% dose/g"}, {"measurement": "% dose/organ BLOOD", "setting": "30 min", "value": "7.63 ± 1.03", "unit": "% dose/organ"}, {"measurement": "% dose/organ BRAIN", "setting": "30 min", "value": "1.174 ± 0.062", "unit": "% dose/organ"}, {"measurement": "% dose/organ HEART", "setting": "30 min", "value": "0.27 ± 0.02", "unit": "% dose/organ"}, {"measurement": "% dose/organ KIDNEY", "setting": "30 min", "value": "3.48 ± 0.643", "unit": "% dose/organ"}, {"measurement": "% dose/organ LIVER", "setting": "30 min", "value": "4.709 ± 0.347", "unit": "% dose/organ"}, {"measurement": "% dose/organ LUNG", "setting": "30 min", "value": "1.78 ± 0.08", "unit": "% dose/organ"}, {"measurement": "% dose/organ MUSCLE", "setting": "30 min", "value": "16.27 ± 0.82", "unit": "% dose/organ"}, {"measurement": "% dose/organ SKIN", "setting": "30 min", "value": "6.121 ± 0.536", "unit": "% dose/organ"}, {"measurement": "% dose/organ SPLEEN", "setting": "30 min", "value": "0.279 ± 0.026", "unit": "% dose/organ"}, {"measurement": "SB: specific binding = (region-CB)/CB, CORTEX", "setting": "30 min", "value": 0.972}, {"measurement": "SB: specific binding = (region-CB)/CB, HIPPOCAMPUS", "setting": "30 min", "value": 1.002}, {"measurement": "SB: specific binding = (region-CB)/CB, HYPOTHALAMUS", "setting": "30 min", "value": 1.208}, {"measurement": "SB: specific binding = (region-CB)/CB, STRIATUM", "setting": "30 min", "value": 1.104}, {"measurement": "% dose/g CEREBELLUM", "setting": "60 min", "value": "0.153 ± 0.019", "unit": "% dose/g"}, {"measurement": "% dose/g CORTEX", "setting": "60 min", "value": "0.310 ± 0.060", "unit": "% dose/g"}, {"measurement": "% dose/g HIPPOCAMPUS", "setting": "60 min", "value": "0.355 ± 0.016", "unit": "% dose/g"}, {"measurement": "% dose/g HYPOTHALAMUS", "setting": "60 min", "value": "0.422 ± 0.066", "unit": "% dose/g"}, {"measurement": "% dose/g STRIATUM", "setting": "60 min", "value": "0.257 ± 0.042", "unit": "% dose/g"}, {"measurement": "% dose/organ BLOOD", "setting": "60 min", "value": "6.380 ± 0.729", "unit": "% dose/organ"}, {"measurement": "% dose/organ BRAIN", "setting": "60 min", "value": "0.50 % dose/organ and 0.503 ± 0.027 % dose/organ"}, {"measurement": "% dose/organ HEART", "setting": "60 min", "value": "0.187 ± 0.008", "unit": "% dose/organ"}, {"measurement": "% dose/organ KIDNEY", "setting": "60 min", "value": "1.993 ± 0.351", "unit": "% dose/organ"}, {"measurement": "% dose/organ LIVER", "setting": "60 min", "value": "4.120 ± 0.766", "unit": "% dose/organ"}, {"measurement": "% dose/organ LUNG", "setting": "60 min", "value": "0.931 ± 0.086", "unit": "% dose/organ"}, {"measurement": "% dose/organ MUSCLE", "setting": "60 min", "value": "6.775 ± 0.145", "unit": "% dose/organ"}, {"measurement": "% dose/organ SKIN", "setting": "60 min", "value": "7.538 ± 0.127", "unit": "% dose/organ"}, {"measurement": "% dose/organ SPLEEN", "setting": "60 min", "value": "0.167 ± 0.027", "unit": "% dose/organ"}, {"measurement": "SB: specific binding = (region-CB)/CB, CORTEX", "setting": "60 min", "value": 1.024}]}]}
